Test results reported in patent publication US20030220524A1, “Sulfur containing compounds” (priority 2000, published 2003).

Assays:
[1] = tested on: Aspergillus niger and Aspergillus flavus; assay: Antifungal activity; assay type: cell-based; details: in words; dose not given
Procedure: Sulfur compounds were tested for antifungal activity against pure cultures of Aspergillus niger and Aspergillus flavus supplied by Ward's Natural Science Ltd (St. Catharines, Ontario, Canada). They were maintained on Sabouraud Dextrose Agar.
For the test, 6 agar plugs (5 mm diameter) were cut from a 5-8 day old colony and homogenized in distilled, sterilized water (2 ml). A portion of this suspension (0.5 ml) was transferred aseptically to a Petri plate with Sabouraud Dextrose Agar (15 ml) and spread evenly over the entire surface. Each plate was supplied with four evenly spaced paper disks (7 mm, Whatman Number 1 filter paper) containing the test compound (0, 25, 50 and 100 μg respectively). Each test compound was applied to the disks as a solution (50 mg compound/10 ml acetone). Control disks were treated with neat acetone (20 μl). Test plates with fungal homogenates and disks were incubated at 18-20° C. for 2 days. For each test four replicate plates were used. The diameter of the clear zone surrounding the disk was taken as the indicator of antifungal activity.

leukemic cells [2] = assay: Trypan blue exclusion in combination with MTT activity; assay type: cell-based, human; details: in words
Procedure: Adherent cells were seeded at 67×10^3 cells/mL in a 96 well plate (Falcon, Mississauga, Ontario) the day prior to exposure to compound. Suspension cells were seeded at 27×10^4 cells/mL in a 96 well plate the day of exposure to compound. Mononucleated, T-cell depleted normal bone marrow cells were seeded at 67×10^4 cells/mL in a 96 well plate the day of exposure to compound. Compounds and solvent control were added to cells and assayed in triplicate or sextuplet. Following 48 h of incubation at 37° C. with 5% CO2, 40 μL of a 5 mg/mL solution of 3-[4,5-dimethylthiazol-2-yl]-2,5-diphenyltetrazolium bromide (MTT) substrate (Sigma) in Dulbecco's phosphate-buffered saline (D-PBS) was added. After 4 h of incubation at 37° C. with 5% CO2, the resulting violet formazan precipitate was solubilized by the addition of 80 μL of a 0.01 M HCI, 10% sodium dodecyl sulfate (SDS; Sigma) solution overnight at 37° C. with 5% CO2. The plates were then analyzed using the BioRad Benchmark Microplate Reader (BioRad Laboratories, Hercules, Calif.) at 570 nm to determine the optical density of the samples. MTT data was analyzed using Prism 3.0 (GraphPad Software, Inc., San Diego, Calif.) by the Chou-Talalay method. MTT graphs shown are a representative experiment.
Leukemic cells were seeded in a 24-well plate (Nunc, Naperville, Ill.) at 25×10^4 cells/mL. Cells were then exposed in triplicate to solvent control or the approximate MTT50 concentration of compounds B, C, F, G or H at 10 μg/mL, or I at 5 μg/mL. The final solvent volume was 2.4 μL/mL of media for trypan blue exclusion assay. The compound was replenished after 48 h of treatment. Cell counts were evaluated using a 1:1 dilution of cell suspension in trypan blue (Gibco-BRL, Mississauga, Ontario, Canada). Viable and nonviable cells were counted using a hemocytometer. Cells which excluded trypan blue were counted as viable whereas stained cells were counted as nonviable. Trypan blue exclusion graphs shown are a representative experiment.
Leukemic cells were seeded in a 24-well plate (Nunc, Naperville, Ill.) at 25×10^4 cells/mL. Cells were then exposed in triplicate to solvent control or the approximate MTT50 concentration of compounds F (10 μg/mL), G (10 μg/mL) or 1 (5 μg/mL). The final solvent volume was 2.4 μL/mL of media for trypan blue exclusion assay. The compound was replenished after 48 h of treatment. Cell counts were evaluated using a 1:1 dilution of cell suspension in trypan blue (Gibco-BRL, Mississauga, Ontario, Canada). Viable and nonviable cells were counted using a hemocytometer. Cells which excluded trypan blue were counted as viable whereas stained cells were counted as nonviable. Trypan blue exclusion graphs shown are a representative experiment.

leukemic cells [3] = assay: Cell cycle and apoptosis by fixed PI and TUNEL; assay type: cell-based, human; details: in words
Procedure: Adherent cell lines were plated at 35×10^4 cells/60 cm^2 dish the day before exposure to compound. Suspension cells were seeded at 25×10^4 cells/mL in a 6 well dish (Falcon) the day of exposure to compound. Mononucleated, T-cell depleted normal bone marrow cells were seeded at 50×10^4 cells/mL in a 6 well dish the day of exposure to compound. Cells were exposed to solvent control or approximate MTT50 and MTT30 concentrations of the compound. After 48 h of exposure to the compound, cells were harvested, fixed in 80% ethanol for 1 h on ice and labeled with 50 μg/mL propidium iodide (Sigma). Approximately 10^6 cells were analyzed using a XL-MCL flow cytometer (Coulter Corporation, Miami, Fla.) and a FACScalibar cytometer (Becton Dickinson, San Jose, Calif.). Profiles shown are a representative.
Adherent cell lines were plated at 35×10^4 cells/60 cm^2 dish the day before exposure to compound. Suspension cells were seeded at 25×10^4 cells/mL in a 6 well dish (Falcon) the day of exposure to compound. Mononucleated, T-cell depleted normal bone marrow cells were seeded at 50×10^4 cells/mL in a 6 well dish the day of exposure to compound. Cells were exposed to solvent control or approximate MTT50 and MTT30 concentrations of the compound. After 48 h of exposure to the compound, cells were harvested and fixed with a final concentration of 4% formaldehyde. Fixed cells were stored at −20° C. in 70% ethanol for no more than 5 days. Approximately 10^5 cells were pelleted and labeled with 0.02 mM Biotin-dUTP and 12.5 U TdT enzyme in a 1× reaction buffer (200 mM potassium cacodylate, 25 mM Tris-HCl, 25 μg/mL bovine serum albumin, pH 6.6), 2.5 mM CoCl2 and 0.01 mM dTTP (Roche Molecular Biochemicals, Laval, QC, Canada) for 45 min at 37° C. Samples were washed and incubated in 200 μL of 1:1000 fluorescein isothiocyanate (FITC)-conjugated avidin (Sigma) in 4×SSC, 5% skim milk powder and 0.05% Tween-20 (Sigma). Following 1 h of mixing at room temperature, the samples were washed and resuspended in 500 μL of D-PBS containing 2.5 μg/mL DNase-free RNase (Boehringer Mannheim) and 10 μg/mL PI. Following a 30 min incubation at room temperature, cells were analyzed using a XL-MCL flow cytometer (Coulter Corporation, Miami, Fla.) and a FACScalibar cytometer (Becton Dickinson, San Jose, Calif.). Profiles shown are representative of one experiment.

Row | Compound | Antifungal activity [1] | Cytotoxicity to the leukemic cells (trypan blue exclusion with MTT activity) (leukemic cells [2]) | Cell cycle effect / apoptosis of leukemic cells (fixed PI and TUNEL) (leukemic cells [3])
1 | CSCSCS(C)(=O)=O [B] | do not possess antiproliferative activity on either fungal or mammalian cells |  | 
2 | CS(C)(=O)=O [Compound A, dimethyl sulfone] | do not possess antiproliferative activity on either fungal or mammalian cells |  | 
3 | CSSCS(=O)(=O)c1ccc(C)cc1 [Compound C, α-p-toluenesulfonyl dimethyl disulphide] | possess antifungal and anti-mammalian cell activity | cytotoxic to the leukemic cells in a dose-dependent manner | undergo apoptosis in all the phases of the cell cycle
4 | CCC(=O)OCSSc1ccccc1 [Compound Q, 1-phenyl-1,2-dithiapropyl propionate] | potent antifungal compound |  | 
5 | c1ccc(SSc2ccccc2)cc1 [D, diphenyl disulphide] | do not possess antifungal activity | cytotoxic to the leukemic cells in a dose-dependent manner | undergo apoptosis in all the phases of the cell cycle
6 | CS(=O)(=O)CSSc1ccccc1 [E, 5-phenyl-2,4,5-trithiapentane 2,2-dioxide] | possess antifungal and anti-mammalian cell activity | cytotoxic to the leukemic cells in a dose-dependent manner | undergo apoptosis in all the phases of the cell cycle
7 | CSSCCS(C)(=O)=O [F, 2,3,6-trithiaheptane 6,6,-dioxide] | do not possess antifungal activity | cytotoxic to the leukemic cells in a dose-dependent manner | accumulation of leukemic cells in the G2/M phase of the cell cycle prior to the cells undergoing apoptosis
8 | CS(=O)(=O)CSCS(C)(=O)=O [G, 2,4,6-trithiaheptane 2,2,6,6-tetraoxide] | do not possess antiproliferative activity on either fungal or mammalian cells |  | 
9 | COC(=O)CSSC [H, methyl 3,4-dithiopentanoate] | do not possess antifungal activity | cytotoxic to the leukemic cells in a dose-dependent manner | accumulation of leukemic cells in the G2/M phase of the cell cycle prior to the cells undergoing apoptosis
10 | CSSCOC(C)=O [I, 2,3-dithiabutyl acetate] | possess antifungal and anti-mammalian cell activity | cytotoxic to the leukemic cells in a dose-dependent manner | undergo apoptosis in all the phases of the cell cycle
